Reference: publication PMC8151276, “An Integrated Approach toward NanoBRET Tracers for Analysis of GPCR Ligand Engagement” (Molecules, 2021)

What was measured:
Assay type in all cases: binding
BDKRB1 = target: T1, BDKRB1 (Homo sapiens, UniProt P46663); assay: NanoBRET screen HiBiT-BDKRB1 in HEK293
T1 construct: purchased Promega (in-house HiBiT-GPCR construct library, NanoBRET)
T1 sequence (P46663 1-353): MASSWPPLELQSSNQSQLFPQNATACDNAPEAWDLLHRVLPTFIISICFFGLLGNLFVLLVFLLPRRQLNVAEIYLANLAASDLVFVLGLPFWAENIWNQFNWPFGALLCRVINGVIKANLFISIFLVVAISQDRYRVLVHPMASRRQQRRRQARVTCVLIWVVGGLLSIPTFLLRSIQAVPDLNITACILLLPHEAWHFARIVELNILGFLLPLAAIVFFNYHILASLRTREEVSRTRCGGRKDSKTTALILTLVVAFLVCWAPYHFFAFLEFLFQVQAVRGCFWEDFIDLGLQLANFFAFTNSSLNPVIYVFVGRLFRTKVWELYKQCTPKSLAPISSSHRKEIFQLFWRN
Method: (§1) Each tracer candidate was screened across the entire library of HiBiT-GPCR constructs using NanoBRET as the detection modality. As depicted in Figure 4A, the specificity of interactions was evaluated through decrease in BRET due to competitive displacement of a bound tracer by excess parental compound. Each tracer was analyzed for binding to each HiBiT-GPCR fusion in the absence and in the presence of competing parental compound. Briefly, HEK293 cells were transfected with HiBiT-GPCR constructs diluted into promoterless DNA to reduce expression and maximize translocation to the cell surface. Each tracer candidate was then screened at concentrations of 1 μM and 0.1 μM across cells expressing these fusions. Cells were treated for 1.5 h with tracer either alone or in the presence of 20 μM competing parental compound (i.e., control). BRET was measured upon addition of purified LgBiT and subsequent complementation with HiBiT genetically fused to a GPCR. The specificity of interactions was assessed through a decrease in BRET signal due to competitive displacement of the bound tracer. To further gauge the robustness of these interactions, the fold response over the control (i.e., BRETtracer/BRETcontrol) was calculated. We chose a 1.5-fold response, which translates to ≥7-fold signal over noise as the minimal threshold required to score an interaction as positive. […]. Below we highlight the screening results obtained for our exemplary fluorescent tracers based on Clozapine, Amitriptyline and AZD1283.
(§2) HiBiT-GPCR DNA constructs were diluted in 10 mM Tris pH 8 to a final concentration of 0.01 μg/μL, arrayed in 96-well plates and stored at −20 °C. For transfection, HEK293 cells were suspended in Opti-MEM (without phenol red) supplemented with 2% fetal bovine serum (Seradigm) and 100 units/mL penicillin–streptomycin (Gibco) at a final concentration of 220,000 cells/mL and dispensed into white 96-well plates at 90 μL/well. Subsequent transfections and screens were carried using an Agilent Bravo Automated Liquid Handling Platform. First, the 96-well HiBiT DNA arrays were diluted 25-fold in Opti-MEM (without serum or phenol red) to a final concentration of 0.0004 μg/μL and 20 μL of the diluted DNAs were transferred into new 96-well plates. Next, promoterless carrier DNA (1 μg/μL) was diluted 25-fold (0.04 μg/μL) and then dispensed into the diluted arrays at 20 μL/well. Following brief mixing, Viafect transfection reagent (Promega) diluted 16-fold into Opti-MEM was dispensed into the plates at 40 μL/well. After mixing by pipetting, plates were incubated for 10 min on the pipetting station deck. The DNA-transfection reagent complexes were then added to plates containing cells. To facilitate the screen, 10 μL of DNA-transfection reagent complexes were added in duplicates to the top 4 and bottom 4 rows, resulting in two identical 48-well arrays per plate. Plates with transfected cells were incubated for 18–20 h at 37 °C/5% CO2. A screen of each tracer across the entire library using two different concentrations requires duplicate plates of transfected cells. Depending on the number of tracers being screened, transfections can be scaled up using the same ratios. The next day, for each tracer, four 20× screening solutions in tracer dilution buffer (Promega) were prepared: two duplicates at final concentration of 20 μM and two duplicates at a final concentration of 2 μM. A competing unmodified compound was added to one of each duplicate at a final concentration of 400 μM. The four resulting solutions were diluted 4-fold in Opti-MEM without serum or phenol red to generate 5× solutions (5 µM and 0.5 µM tracer +/− 100 μM competing compound). To screen the library, a BioTek MultiFlo FX liquid dispenser was used to dispense 22.5 µL of tracer solution to the top 4 rows and 22.5 µL tracer + competing compound solution to the 4 bottom rows. Plates were briefly mixed on an orbital shaker and incubated for 1.5 h at room temperature. […]

CCR5 = target: T2, CCR5 (Homo sapiens, UniProt P51681); assay: NanoBRET screen HiBiT-CCR5 in HEK293
T2 construct: purchased Promega (in-house HiBiT-GPCR construct library, NanoBRET)
Method: as §1, §2

P2RY14 = target: T3, P2RY14 (Homo sapiens, UniProt Q15391); assay: NanoBRET screen HiBiT-P2RY14 in HEK293
T3 construct: purchased Promega (in-house HiBiT-GPCR construct library, NanoBRET)
T3 sequence (Q15391 1-338): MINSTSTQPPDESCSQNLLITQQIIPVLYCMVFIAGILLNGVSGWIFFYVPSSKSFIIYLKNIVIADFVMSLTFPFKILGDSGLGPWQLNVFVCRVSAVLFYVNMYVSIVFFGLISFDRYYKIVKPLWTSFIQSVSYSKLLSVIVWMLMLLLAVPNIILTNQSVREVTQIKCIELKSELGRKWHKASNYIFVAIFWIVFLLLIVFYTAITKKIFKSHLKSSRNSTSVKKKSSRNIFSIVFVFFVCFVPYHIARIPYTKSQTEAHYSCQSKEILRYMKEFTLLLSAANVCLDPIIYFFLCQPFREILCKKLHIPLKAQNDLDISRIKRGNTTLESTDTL
Method: as §1, §2

CCR9 = target: T4, CCR9 (Homo sapiens, UniProt P51686); assay: NanoBRET screen HiBiT-CCR9 in HEK293
T4 construct: purchased Promega (in-house HiBiT-GPCR construct library, NanoBRET)
T4 sequence (P51686 1-369): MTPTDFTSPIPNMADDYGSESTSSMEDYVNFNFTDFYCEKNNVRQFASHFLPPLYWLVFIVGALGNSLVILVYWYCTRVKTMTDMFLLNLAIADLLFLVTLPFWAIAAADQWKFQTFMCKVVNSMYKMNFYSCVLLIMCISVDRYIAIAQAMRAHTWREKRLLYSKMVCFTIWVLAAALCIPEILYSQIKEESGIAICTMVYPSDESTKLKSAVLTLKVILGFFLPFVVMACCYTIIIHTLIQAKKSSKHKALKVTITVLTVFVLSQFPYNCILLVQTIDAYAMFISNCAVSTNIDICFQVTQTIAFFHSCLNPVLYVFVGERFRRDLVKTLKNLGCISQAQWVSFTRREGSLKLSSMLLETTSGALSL
Method: as §1, §2

T2 sequence (P51681 whole entry): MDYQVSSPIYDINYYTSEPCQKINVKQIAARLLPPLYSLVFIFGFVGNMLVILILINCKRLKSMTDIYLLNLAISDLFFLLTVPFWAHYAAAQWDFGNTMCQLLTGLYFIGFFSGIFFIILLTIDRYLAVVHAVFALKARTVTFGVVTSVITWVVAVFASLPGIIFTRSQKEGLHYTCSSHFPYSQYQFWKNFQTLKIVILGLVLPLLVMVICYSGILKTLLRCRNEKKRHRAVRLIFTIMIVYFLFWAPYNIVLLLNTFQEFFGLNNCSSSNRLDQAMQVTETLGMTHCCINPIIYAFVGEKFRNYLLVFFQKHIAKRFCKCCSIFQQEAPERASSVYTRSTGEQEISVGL

Structure (SMILES)	NanoBRET Fold Response (BDKRB1; BDKRB1, tracer 0.1μM)	NanoBRET Fold Response (BDKRB1; BDKRB1, tracer 1μM)	NanoBRET Fold Response (CCR5; CCR5, tracer 0.1μM)	NanoBRET Fold Response (CCR5; CCR5, tracer 1μM)	NanoBRET Fold Response (P2RY14; P2RY14, tracer 0.1μM)	NanoBRET Fold Response (CCR9; CCR9, tracer 0.1μM)	NanoBRET Fold Response (CCR9; CCR9, tracer 1μM)	NanoBRET Fold Response (P2RY14; P2RY14, tracer 1μM)	other results
COc1ccccc1N1CCN(CCCCN2C(=O)c3ccc(CNC(=O)CCOCCOCCOCCOCCNC(=O)CCc4ccc5n4[B-](F)(F)[N+]4=C(c6ccc[nH]6)C=CC4=C5)cc3C2=O)CC1 [NAN-190-2-NB590]	1.05	1.06	0.95	1.03	1.02	0.98	0.99	–	–
O=C(CCc1ccc2n1[B-](F)(F)[N+]1=C(c3ccc[nH]3)C=CC1=C2)NCCOCCOCCNC(=O)OCCOCCN1CCN(C2=Nc3ccccc3Sc3ccccc32)CC1 [Quetiapine-a-2-NB590]	1.42	0.65	0.95	0.85	0.96	1.05	0.96	0.93	–
O=C(CCOCCOCCOCCOCCNC(=O)CCc1ccc2n1[B-](F)(F)[N+]1=C(c3ccc[nH]3)C=CC1=C2)NCCCN1CCN(C2=Nc3cc(Cl)ccc3Nc3ccccc32)CC1 [Clozapine-a-2-NB590]	–	–	–	–	–	–	–	–	NanoBRET Fold Response (BDKRB1; BDKRB1, 0.1μM tracer): 1.02; NanoBRET Fold Response (BDKRB1; BDKRB1, 1μM tracer): 1.37; NanoBRET Fold Response (CCR5; CCR5, 0.1μM tracer): 1.07; NanoBRET Fold Response (CCR5; CCR5, 1μM tracer): 0.90; NanoBRET Fold Response (P2RY14; P2RY14, 0.1μM tracer): 1.07; NanoBRET Fold Response (P2RY14; P2RY14, 1μM tracer): 0.84; NanoBRET Fold Response (CCR9; CCR9, 0.1μM tracer): 1.03; NanoBRET Fold Response (CCR9; CCR9, 1μM tracer): 1.05
N#CN=C(NCCCOc1cccc(CN2CCCCC2)c1)NCCNC(=O)CCOCCOCCOCCOCCNC(=O)CCc1ccc2n1[B-](F)(F)[N+]1=C(c3ccc[nH]3)C=CC1=C2 [Aminopotentidine-2-NB590]	1.01	1.02	1.00	1.11	0.98	1.09	1.11	0.91	–
O=C(CCc1ccc2n1[B-](F)(F)[N+]1=C(c3ccc[nH]3)C=CC1=C2)NCc1ccc(C(=O)NCCOCCOCCNCC(O)COc2cccc3ccccc23)cc1 (stereo not shown) [Propranolol-3-NB590]	–	–	–	–	–	–	–	–	NanoBRET Fold Response (BDKRB1; BDKRB1, 0.1μM): 0.95; NanoBRET Fold Response (BDKRB1; BDKRB1, 1μM): 0.97; NanoBRET Fold Response (CCR5; CCR5, 0.1μM): 1.09; NanoBRET Fold Response (CCR5; CCR5, 1μM): 0.96; NanoBRET Fold Response (P2RY14; P2RY14, 0.1μM): 1.10; NanoBRET Fold Response (P2RY14; P2RY14, 1μM): 1.00; NanoBRET Fold Response (CCR9; CCR9, 0.1μM): 1.08; NanoBRET Fold Response (CCR9; CCR9, 1μM): 1.00
O=C(CCc1ccc2n1[B-](F)(F)[N+]1=C(c3ccc[nH]3)C=CC1=C2)NCc1ccc(C(=O)NCCOCCC(=O)N[C@@H]2CC[C@@]3(O)[C@H]4Cc5ccc(O)c6c5[C@@]3(CCN4CC3CC3)[C@H]2O6)cc1 [Naltrexone-3-NB590]	1.18	1.03	1.21	1.11	0.95	0.55	0.92	1.00	–
COc1ccccc1N1CCN(CCCCN2C(=O)c3ccc(CNC(=O)CCOCCNC(=O)c4ccc(CNC(=O)CCc5ccc6n5[B-](F)(F)[N+]5=C(c7ccc[nH]7)C=CC5=C6)cc4)cc3C2=O)CC1 [NAN-190-3-NB590]	0.84	1.05	0.95	1.03	0.95	1.14	1.04	1.06	–
Cc1cc2c(s1)Nc1ccccc1N=C2N1CCN(CCCNC(=O)CCOCCOCCOCCOCCNC(=O)CCc2ccc3n2[B-](F)(F)[N+]2=C(c4ccc[nH]4)C=CC2=C3)CC1 [Olanzapine-a-2-NB590]	0.83	1.10	1.00	0.89	1.05	1.03	1.17	1.00	–
CCCn1c(=O)c2[nH]c(-c3ccc(OCC(=O)NCCNC(=O)CCOCCNC(=O)c4ccc(CNC(=O)CCc5ccc6n5[B-](F)(F)[N+]5=C(c7ccc[nH]7)C=CC5=C6)cc4)cc3)nc2n(CCC)c1=O [XAC-3-NB590]	0.91	0.94	0.83	0.86	0.59	0.95	1.57	1.36	–
COc1ccc2c(n1)c(CCNC(C)=O)cn2CCNC(=O)CCc1ccc2n1[B-](F)(F)[N+]1=C(c3ccc[nH]3)C=CC1=C2 [Azamelatonin-1-NB590]	–	–	–	–	–	–	–	–	NanoBRET Fold Response (BDKRB1; 0.1μM tracer): 1.39; NanoBRET Fold Response (BDKRB1; 1μM tracer): 0.74; NanoBRET Fold Response (CCR5; 0.1μM tracer): 1.29; NanoBRET Fold Response (CCR5; 1μM tracer): 0.63; NanoBRET Fold Response (P2RY14; 0.1μM tracer): 0.98; NanoBRET Fold Response (P2RY14; 1μM tracer): 0.98; NanoBRET Fold Response (CCR9; 0.1μM tracer): 1.05; NanoBRET Fold Response (CCR9; 1μM tracer): 1.04
